Source: ChEMBL document CHEMBL5143555, “Potentiating the intracellular killing of Staphylococcus aureus by dihydroquinazoline analogues as NorA efflux pump inhibitor” (Bioorg Med Chem, 2022)
≈ marks a conversion by molar mass, not a printed value. Calls of active or inactive are those of the source. No cut-off for these calls is given here.

How the values were obtained:
Staphylococcus aureus [1] = experiment: Antibacterial activity against Staphylococcus aureus 1199 measured after 24 hrs by Muller Hinton broth based MTT assay; type: functional
Staphylococcus aureus [2] = experiment: Antibacterial activity against Staphylococcus aureus 1199B measured after 24 hrs by Muller Hinton broth based MTT assay; type: functional
Staphylococcus aureus [3] = experiment: Antibacterial activity against Staphylococcus aureus K1758 measured after 24 hrs by Muller Hinton broth based MTT assay; type: functional
[4] = biological target: T1, Quinolone resistance protein NorA (Staphylococcus aureus) (UniProt P0A0J7); experiment: Inhibition of NorA in Staphylococcus aureus 1199B assessed as potentiation of norfloxacin-induced antibacterial activity by measuring Norfloxacin MIC at sub MIC relative to norfloxacin MIC alone
T1 sequence (whole entry): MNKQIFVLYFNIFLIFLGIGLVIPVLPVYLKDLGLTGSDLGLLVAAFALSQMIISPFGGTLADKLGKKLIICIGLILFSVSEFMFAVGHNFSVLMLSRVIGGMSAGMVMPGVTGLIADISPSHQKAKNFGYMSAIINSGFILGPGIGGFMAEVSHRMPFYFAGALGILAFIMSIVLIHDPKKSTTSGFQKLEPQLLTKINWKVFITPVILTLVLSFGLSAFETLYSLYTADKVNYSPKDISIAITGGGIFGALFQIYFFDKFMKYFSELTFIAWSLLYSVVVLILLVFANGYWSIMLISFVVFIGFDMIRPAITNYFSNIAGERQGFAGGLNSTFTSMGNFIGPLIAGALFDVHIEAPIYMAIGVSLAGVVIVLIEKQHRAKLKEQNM

[5] = biological target: T1, Quinolone resistance protein NorA (Staphylococcus aureus); experiment: Inhibition of NorA in Staphylococcus aureus 1199B assessed as potentiation of ethidium bromide-induced bactericidal activity at 7.8 ug/ml measured within 8 hrs by time-kill kinetics assay; conditions: dose 7.8 µg/ml
[6] = biological target: T1, Quinolone resistance protein NorA (Staphylococcus aureus); experiment: Inhibition of NorA in Staphylococcus aureus 1199B assessed as potentiation of 3.1 ug/mL norfloxacin-induced bactericidal activity by measuring log reduction in bacterial count at 7.8 ug/mL measured after 12 hrs by time-kill kinetics assay; conditions: dose 7.8 µg/ml
[7] = biological target: T1, Quinolone resistance protein NorA (Staphylococcus aureus); experiment: Inhibition of NorA in Staphylococcus aureus 1199B assessed as accumulation of ethidium bromide at 3.9 ug/ml by measuring fluorescence intensity measured at 5 mins interval for 40 mins by fluorescence spectrophotometry; conditions: dose 3.9 µg/ml
[8] = biological target: T1, Quinolone resistance protein NorA (Staphylococcus aureus); experiment: Inhibition of NorA in Staphylococcus aureus 1199B assessed as potentiation of ethidium bromide-induced antibacterial activity by measuring ethidium bromide MIC at sub MIC
[9] = biological target: T1, Quinolone resistance protein NorA (Staphylococcus aureus); experiment: Inhibition of NorA in Staphylococcus aureus 1199B assessed as potentiation of norfloxacin-induced antibacterial activity by measuring Norfloxacin MIC at sub MIC
[10] = biological target: T1, Quinolone resistance protein NorA (Staphylococcus aureus); experiment: Inhibition of NorA in Staphylococcus aureus 1199B assessed as potentiation of norfloxacin-induced antibacterial activity by measuring fractional inhibitory concentration
[11] = biological target: T1, Quinolone resistance protein NorA (Staphylococcus aureus); experiment: Inhibition of NorA in Staphylococcus aureus 1199B assessed as potentiation of ethidium bromide-induced antibacterial activity by measuring ethidium bromide MIC at sub MIC relative to ethidium bromide MIC alone
[12] = Cytotoxicity against kidney epithelial cells (unknown origin) assessed as cell viability at 50 ug/mL measured after 24 hrs by alamar blue assay relative to control; type: toxicity, cell-based, Fetal kidney cell; conditions: at 50 µg/mL, read-out: Activity
[13] = biological target: T1, Quinolone resistance protein NorA (Staphylococcus aureus); experiment: Inhibition of NorA in Staphylococcus aureus 1199B assessed as potentiation of ethidium bromide-induced antibacterial activity by measuring fractional inhibitory concentration
[14] = biological target: T1, Quinolone resistance protein NorA (Staphylococcus aureus); experiment: Inhibition of NorA in Staphylococcus aureus 1199B assessed as accumulation of norfloxacin at 3.9 ug/ml by measuring fluorescence intensity measured at 5 mins interval for 40 mins by fluorescence spectrophotometry; conditions: dose 3.9 µg/ml
[15] = biological target: T1, Quinolone resistance protein NorA (Staphylococcus aureus); experiment: Inhibition of NorA in Staphylococcus aureus 1199B assessed as potentiation of ethidium bromide-induced bactericidal activity at 62.5 ug/ml measured within 8 hrs by time-kill kinetics assay; conditions: dose 62.5 µg/ml
Staphylococcus aureus [16] = experiment: Down regulation of NorA gene expression in Staphylococcus aureus 1199B at 3.9 ug/ml measured after 2 hrs by qRT-PCR analysis; type: functional; conditions: dose 3.9 µg/ml
[17] = biological target: T1, Quinolone resistance protein NorA (Staphylococcus aureus); experiment: Inhibition of NorA in Staphylococcus aureus 1199B assessed as potentiation of 3.1 ug/mL norfloxacin-induced bactericidal activity by measuring log reduction in bacterial count at 7.8 ug/mL measured after 8 hrs by time-kill kinetics assay; conditions: dose 7.8 µg/ml
Staphylococcus aureus [18] = experiment: Down regulation of NorA gene expression in Staphylococcus aureus 1199B at 3.1 ug/ml measured after 2 hrs in presence of norfloxacin by qRT-PCR analysis relative to norfloxacin; type: functional; conditions: dose 3.1 µg/ml
[19] = biological target: T1, Quinolone resistance protein NorA (Staphylococcus aureus); experiment: Inhibition of NorA in Staphylococcus aureus 1199B infected human THP-1 cells assessed as potentiation of 6.2 ug/ml norfloxacin-induced bactericidal activity by measuring log reduction in bacterial count at 15.6 ug/ml measured after 24 hrs relative to control; type: cell-based; conditions: dose 15.6 µg/ml
[20] = biological target: T1, Quinolone resistance protein NorA (Staphylococcus aureus); experiment: Inhibition of NorA in Staphylococcus aureus 1199B infected human THP-1 cells assessed as potentiation of norfloxacin-induced bactericidal activity by measuring reduction in bacterial count at modulatory concentration measured after 24 hrs; type: cell-based
[21] = biological target: T1, Quinolone resistance protein NorA (Staphylococcus aureus); experiment: Inhibition of NorA in Staphylococcus aureus 1199B infected human THP-1 cells assessed as potentiation of norfloxacin-induced bactericidal activity by measuring reduction in intracellular invasion at modulatory concentration measured after 24 hrs; type: cell-based
[22] = biological target: T1, Quinolone resistance protein NorA (Staphylococcus aureus); experiment: Inhibition of NorA in Staphylococcus aureus 1199B infected human THP-1 cells assessed as potentiation of norfloxacin-induced bactericidal activity by measuring reduction in bacterial count at modulatory concentration measured after 24 hrs relative to control; type: cell-based
[23] = biological target: T1, Quinolone resistance protein NorA (Staphylococcus aureus); experiment: Inhibition of NorA in Staphylococcus aureus 1199B infected human THP-1 cells assessed as potentiation of norfloxacin-induced bactericidal activity by measuring log reduction in bacterial count measured after 24 hrs relative to vancomycin; type: cell-based
[24] = biological target: T1, Quinolone resistance protein NorA (Staphylococcus aureus); experiment: Inhibition of NorA in Staphylococcus aureus 1199B assessed as potentiation of norfloxacin-induced morphological changes by measuring appearance of undeveloped cells sticking together at sub MIC by field emission scanning electron microscopy
[25] = biological target: T1, Quinolone resistance protein NorA (Staphylococcus aureus); experiment: Inhibition of NorA in Staphylococcus aureus 1199B infected human THP-1 cells assessed as potentiation of norfloxacin-induced bactericidal activity by measuring reduction in intracellular proliferation at modulatory concentration measured after 24 hrs; type: cell-based
Staphylococcus aureus [26] = experiment: Down regulation of NorA gene expression in Staphylococcus aureus 1199B at 3.1 ug/ml measured after 2 hrs by qRT-PCR analysis relative to control; type: functional; conditions: dose 3.1 µg/ml
[27] = biological target: T1, Quinolone resistance protein NorA (Staphylococcus aureus); experiment: Inhibition of NorA in Staphylococcus aureus 1199B assessed as potentiation of 3.1 ug/mL norfloxacin-induced bactericidal activity by measuring log reduction in bacterial count at 7.8 ug/mL measured after 24 hrs by time-kill kinetics assay; conditions: dose 7.8 µg/ml

## CN[C@@H]1[C@H](O[C@H]2[C@H](O[C@H]3[C@H](O)[C@@H](O)[C@H](N=C(N)N)[C@@H](O)[C@@H]3N=C(N)N)O[C@@H](C)[C@]2(O)C=O)O[C@@H](CO)[C@H](O)[C@H]1O [STREPTOMYCIN]
Staphylococcus aureus [1]
  MIC: 1.7 µg/mL (≈ 2.92 µM)
Staphylococcus aureus [2]
  MIC: 3.5 µg/mL (≈ 6.02 µM)
Staphylococcus aureus [3]
  MIC: 0.4 µg/mL (≈ 0.688 µM)

## C=CCOc1ccc(C2N=C(c3ccccc3)c3ccccc3N2)cc1 (stereo not drawn)
Staphylococcus aureus [1]
  MIC: 125 µg/mL (≈ 367 µM)
Staphylococcus aureus [2]
  MIC: 500 µg/mL (≈ 1470 µM)
Staphylococcus aureus [3]
  MIC: 250 µg/mL (≈ 734 µM)

## O=[N+]([O-])c1ccc(C2N=C(c3ccccc3)c3ccccc3N2)cc1 (stereo not drawn)
Staphylococcus aureus [1]
  MIC: 125 µg/mL (≈ 380 µM)
Staphylococcus aureus [2]
  MIC: > 1000 µg/mL
Staphylococcus aureus [3]
  MIC: 250 µg/mL (≈ 759 µM)

## CN1c2ccc(Cl)cc2C(c2ccccc2)=NC1c1ccccc1 (stereo not drawn)
[4]
  fold change (FC): 8
[5]
  inhibition: Active
[6]
  Activity: > 3 log10CFU/ml
[7]
  Flu intensity: 143
[8]
  MIC: 12.5 µg/mL
[9]
  MIC: 6.2 µg/mL
Staphylococcus aureus [1]
  MIC: 125 µg/mL (≈ 376 µM)
Staphylococcus aureus [2]
  MIC: 500 µg/mL (≈ 1500 µM)
[10]
  fractional inhibitory concentration index (FICI): 0.141
[11]
  fold change (FC): 4
[12]
  viability at 24 h, 50 ug/mL: 5%
[13]
  fractional inhibitory concentration index (FICI): 0.266
Staphylococcus aureus [3]
  MIC: 250 µg/mL (≈ 751 µM)
[14]
  Flu intensity: 1560

## COc1ccc(C2N=C(c3ccccc3)c3ccccc3N2)cc1 (stereo not drawn)
Staphylococcus aureus [1]
  MIC: 125 µg/mL (≈ 398 µM)
Staphylococcus aureus [2]
  MIC: 500 µg/mL (≈ 1590 µM)
Staphylococcus aureus [3]
  MIC: 250 µg/mL (≈ 795 µM)

## CN1c2ccc(Cl)cc2C(c2ccccc2)=NC1c1ccc(Br)cc1 (stereo not drawn)
[4]
  fold change (FC): 8
[15]
  inhibition: Active
Staphylococcus aureus [16]
  Activity: Active
[7]
  Flu intensity: 70.6
[8]
  MIC: 3.1 µg/mL
[9]
  MIC: 6.2 µg/mL
Staphylococcus aureus [1]
  MIC: 125 µg/mL (≈ 304 µM)
Staphylococcus aureus [2]
  MIC: 500 µg/mL (≈ 1210 µM)
[10]
  fractional inhibitory concentration index (FICI): 0.141
[11]
  fold change (FC): 16
[17]
  Activity: > 3 log10CFU/ml
[12]
  viability at 24 h, 50 ug/mL: 86.6%
Staphylococcus aureus [18]
  fold change (FC): 9
[19]
  FC: 5
[20]
  Activity: 4.47 log10CFU/ml
[21]
  inhibition: Active
[13]
  fractional inhibitory concentration index (FICI): 0.187
[22]
  fold change (FC): 4
[23]
  FC: 3
Staphylococcus aureus [3]
  MIC: 250 µg/mL (≈ 607 µM)
[24]
  inhibition: Active
[14]
  Flu intensity: 23600
[25]
  inhibition: Active
Staphylococcus aureus [26]
  fold change (FC): 8

## Cc1onc(-c2ccccc2)c1C(=O)N[C@@H]1C(=O)N2[C@@H]1SC(C)(C)[C@@H]2C(=O)O [OXACILLIN]
Staphylococcus aureus [1]
  MIC: 0.1 µg/mL (≈ 0.249 µM)
Staphylococcus aureus [2]
  MIC: 0.42 µg/mL (≈ 1.05 µM)
Staphylococcus aureus [3]
  MIC: 0.1 µg/mL (≈ 0.249 µM)

## CN1c2ccc(Cl)cc2C(c2ccccc2)=NC1c1ccc([N+](=O)[O-])cc1 (stereo not drawn)
[4]
  fold change (FC): 8
[7]
  Flu intensity: 100
[8]
  MIC: 6.2 µg/mL
[9]
  MIC: 6.2 µg/mL
Staphylococcus aureus [1]
  MIC: 125 µg/mL (≈ 331 µM)
Staphylococcus aureus [2]
  MIC: 250 µg/mL (≈ 662 µM)
[10]
  fractional inhibitory concentration index (FICI): 0.141
[11]
  fold change (FC): 8
[12]
  viability at 24 h, 50 ug/mL: 83.1%
[13]
  fractional inhibitory concentration index (FICI): 0.25
[27]
  Activity: > 3 log10CFU/ml
Staphylococcus aureus [3]
  MIC: 250 µg/mL (≈ 662 µM)
[14]
  Flu intensity: 573

## CC[C@H]1OC(=O)[C@H](C)[C@@H](O[C@H]2C[C@@](C)(OC)[C@@H](O)[C@H](C)O2)[C@H](C)[C@@H](O[C@@H]2O[C@H](C)C[C@H](N(C)C)[C@H]2O)[C@](C)(O)C[C@@H](C)C(=O)[C@H](C)[C@@H](O)[C@]1(C)O [ERYTHROMYCIN]
Staphylococcus aureus [1]
  MIC: 0.1 µg/mL (≈ 0.136 µM)
Staphylococcus aureus [2]
  MIC: 0.42 µg/mL (≈ 0.572 µM)
Staphylococcus aureus [3]
  MIC: 0.1 µg/mL (≈ 0.136 µM)

## c1ccc(C2=NC(c3ccco3)Nc3ccccc32)cc1 (stereo not drawn)
Staphylococcus aureus [1]
  MIC: 125 µg/mL (≈ 456 µM)
Staphylococcus aureus [2]
  MIC: 500 µg/mL (≈ 1820 µM)
Staphylococcus aureus [3]
  MIC: 250 µg/mL (≈ 911 µM)

## CC(=O)NC[C@H]1CN(c2ccc(N3CCOCC3)c(F)c2)C(=O)O1 [LINEZOLID]
Staphylococcus aureus [1]
  MIC: 0.85 µg/mL (≈ 2.52 µM)
Staphylococcus aureus [2]
  MIC: 1.75 µg/mL (≈ 5.19 µM)
Staphylococcus aureus [3]
  MIC: 0.1 µg/mL (≈ 0.296 µM)

## Fc1ccccc1C1=NC(c2ccccc2)Nc2ccc(Cl)cc21 (stereo not drawn)
Staphylococcus aureus [1]
  MIC: 62.5 µg/mL (≈ 186 µM)
Staphylococcus aureus [2]
  MIC: 500 µg/mL (≈ 1480 µM)
Staphylococcus aureus [3]
  MIC: 250 µg/mL (≈ 742 µM)
